Source: publication PMC10671715, “Self-Entrapment of Antimicrobial Peptides in Silica Particles for Stable and Effective Antimicrobial Peptide Delivery System” (International Journal of Molecular Sciences, 2023)
Where two headings read alike, the source gives them in different places. Marks after values point to notes of the source that are not given here.

What was measured:
[1] = tested on: S. aureus; design: method as in PMID 33236626; settings: cited from earlier work
[2] = tested on: S. aureus; assay type: cell-based, Staphylococcus aureus (ATCC 29213); settings: 18 h
Method: (§1) Two Gram-negative bacterial strains, namely Escherichia coli (wild type W2110) and Pseudomonas aeruginosa (wild type PK01) and Gram-positive strain, […] (ATCC 29213) were obtained from the Department of Biotechnology and Bioinformatics at Korea University.
(§2) The broth microdilution assay was used to test the antimicrobial activity of AMPs, as previously reported. Briefly, bacteria were grown to mid-logarithmic growth phase in Mueller Hinton Broth (MHB) media at 37 °C. Then, in 96-well plates, 50 µL of peptide solution (0–320 µM) diluted using a 2-fold serial dilution method was mixed with an equal volume of bacterial solution (3 × 10^6 CFU/mL) and incubated for 18 h at 37 °C with shaking at 200 rpm. The negative control was the culture medium itself. […] The assay was performed in triplicate.

[3] = tested on: sheep red blood cells (RBCs); test: Hemolytic activity assay; assay type: cell-based; settings: at 77.5 μM (free peptides: up to 77.5 μM); 37 °C, 1 h, A570, 100% = 1% Triton X-100; N = 3
Method: Free peptides and silica particles loaded with them (AMP@Si) were compared for their cytotoxicity against mouse macrophages (Raw264.7 cells) and their hemolytic activity against RBCs. Free AMP or AMP@Si was added to each well of a 96-well plate in 2-fold serial dilutions to 50 μL with DMEM medium containing 10% FBS and 1% antibiotics. Raw264.7 macrophages at a concentration of 4 × 10^4 cells per 50 μL were added to the wells containing the peptide to give a final volume of 100 μL. Cell proliferation was confirmed by MTS assay (Promega, Madison, WI, USA) after 24 h or 5 days of incubation. The MTS tetrazolium compound was reduced by viable cells to generate a colored formazan product. […] To calculate cell viability, the absorbance of cells treated with the peptide was divided by the absorbance of cells that were not treated with the peptide. The resulting quotient was then expressed as a percentage. […] The supernatant (100 μL) was collected after centrifugation at 1000× g for 5 min, and the absorbance (A) was measured at 570 nm. The value of “zero hemolysis” was determined by the absorbance of PBS alone, and 100% hemolysis was determined by the absorbance of the supernatant obtained from 1% (v/v) Triton X-100-treated RBCs. The percentage of hemolysis was calculated as hemolysis (%) = (AAMP − APBS)/(ATriton − APBS) × 100. […]

[4] = tested on: E. coli; assay type: cell-based, Escherichia coli (wild type W2110); settings: 18 h
Method: as §1, §2

[5] = tested on: P. aeruginosa; assay type: cell-based, Pseudomonas aeruginosa (wild type PK01); settings: 18 h
Method: as §1, §2

[6] = tested on: P. aeruginosa (after trypsin treatment of AMP); test: Residual antibacterial activity after trypsin treatment; settings: 300 μM in 1× PBS, 0.025% trypsin, 37 °C, 3 min, stopped with FBS; overnight culture, OD600; N = 3
Method: (§3) The absorbance value of the bacteria in the absence of AMP was used as the negative control. The absorbance value of the bacteria grown in the presence of trypsinized AMP was subtracted from that of the negative control, and the resulting difference was expressed as a percentage fraction of the negative control, yielding the residual antibacterial activity of AMP after trypsin treatment (Figure 6a).
(§4) Free AMP or AMP@Si was dissolved in 1 × PBS at a concentration of 300 μM and left at 37 °C for 3 min in the presence of 0.025% trypsin, followed by the addition of fetal bovine serum (FBS) to stop the activity of trypsin. Bacteria were incubated overnight with each trypsinized peptide formula, and broth absorbance was measured at 600 nm. As a negative control, the absorbance of the strain grown in the absence of the peptide was set. To determine the remaining antimicrobial activity of AMP after treatment of trypsin, the absorbance of the sample treated with AMP was subtracted from the absorbance of the negative control. The resulting difference was then expressed as a percentage of the absorbance of the negative control.
(§5) (a) The residual antibacterial activity was calculated by taking the difference in optical density at 600 nm between the negative control and the sample containing the trypsinized AMP. It was then divided by the optical density of the negative control and multiplied by 100. Each bacterial solution grown in a medium without AMP is used as a corresponding negative control. […] The image is a 10,000× magnification, the inside image is a 20,000× magnification, and the scale bar represents 1 µm.

[7] = tested on: E. coli (after trypsin treatment of AMP); test: as above; settings: 300 μM in 1× PBS, 0.025% trypsin, 37 °C, 3 min, stopped with FBS; overnight culture, OD600; N = 3
Method: as §3, §4, §5

[8] = tested on: S. aureus (after trypsin treatment of AMP); test: as above; settings: 300 μM in 1× PBS, 0.025% trypsin, 37 °C, 3 min, stopped with FBS; overnight culture, OD600; N = 3
Method: as §3, §4, §5

[9] = tested on: Raw264.7 cells; test: Cytotoxicity, MTS assay; assay type: cell-based, mouse; settings: for Cell viability: 24 h, MTS, N = 3
Method: Free peptides and silica particles loaded with them (AMP@Si) were compared for their cytotoxicity against mouse macrophages (Raw264.7 cells) and their hemolytic activity against RBCs. Free AMP or AMP@Si was added to each well of a 96-well plate in 2-fold serial dilutions to 50 μL with DMEM medium containing 10% FBS and 1% antibiotics. Raw264.7 macrophages at a concentration of 4 × 10^4 cells per 50 μL were added to the wells containing the peptide to give a final volume of 100 μL. Cell proliferation was confirmed by MTS assay (Promega, Madison, WI, USA) after 24 h or 5 days of incubation. The MTS tetrazolium compound was reduced by viable cells to generate a colored formazan product. The intensity of the color at 490 nm is proportional to the number of viable cells in the sample. To calculate cell viability, the absorbance of cells treated with the peptide was divided by the absorbance of cells that were not treated with the peptide. The resulting quotient was then expressed as a percentage. […] The supernatant (100 μL) was collected after centrifugation at 1000× g for 5 min, and the absorbance (A) was measured at 570 nm. The value of “zero hemolysis” was determined by the absorbance of PBS alone, and 100% hemolysis was determined by the absorbance of the supernatant obtained from 1% (v/v) Triton X-100-treated RBCs. The percentage of hemolysis was calculated as hemolysis (%) = (AAMP − APBS)/(ATriton − APBS) × 100.
Figure 7 The hemolytic activity and cytotoxicity of AMPs. […] (b) The cytotoxicity of AMP was measured 24 h after the addition of each indicated concentration of AMP to Raw264.7 cells grown overnight. Cell survival is expressed as a percentage of the negative control grown without AMP.
Figure S4. […] The cytotoxicity of AMP was measured 5 days after incubation of Raw 264.7 cells (4 x 10^5 cells/ mL) in the presence of each indicated concentration of AMP Cell survival was expressed as a percentage of the negative control grown without AMP. […]

[10] = free peptide, MHB, 2-fold dilution 0–320 µM, 37 °C, OD600, mean ± standard error of three replicate experiments

CC(=O)N[C@@H](CCCNC(=N)N)C(=O)N[C@@H](CCCCN)C(=O)N[C@@H](CCCCN)C(=O)N[C@@H](CCCNC(=N)N)C(=O)N[C@@H](CCCNC(=N)N)C(=O)N[C@@H](CCC(N)=O)C(=O)N[C@@H](CCCNC(=N)N)C(=O)N[C@@H](CCCNC(=N)N)C(=O)N[C@@H](CCCNC(=N)N)C(N)=O
entrapment efficiency (EE): 95%

YGRKKRRQRRKRIVQRIKDFLR [TAT-KR-12, literature peptide developed for treatment of intracellular S. aureus infection]
Antibacterial activity against S. aureus [1]: enhanced antibacterial activity

Ac-KRIVQRIKDFLR-NH2 [KR12, reference compound]
Minimum inhibitory concentration (MIC) [2]: >320 ^a µM
Hemolysis [3]: less than 1%
Minimum inhibitory concentration (MIC) [4]: 103.36 ± 25.82 µM
Minimum inhibitory concentration (MIC) [5]: 181.98 ± 68.20 µM

Ac-RKKRRQRRRGSSKRIVQRIKDFLR-NH2 [CPP-KR12]
Residual antibacterial activity after trypsin treatment [6]: approximately 15%
Residual antibacterial activity after trypsin treatment [7]: approximately 10%
Residual antibacterial activity after trypsin treatment [8]: approximately 15%
entrapment efficiency (EE): 95%
Minimum inhibitory concentration (MIC) [2, 10]: 22.80 ± 8.48 µM
Hemolysis [3]: less than 1%
Minimum inhibitory concentration (MIC) [4, 10]: 12.09 ± 4.97 µM
Minimum inhibitory concentration (MIC) [5, 10]: 6.12 ± 3.72 µM
Cytotoxicity ([9]; 6 µM): not cytotoxic
Cell viability ([9]; 19.38 μM): 80%
Cell viability ([9]; 77.5 μM): 10%
